# From patent US9006256B2, “Antitumor agent for thyroid cancer” (Eisai R&D Management Co., Ltd., priority 2006, dated 2015)
# Experiments:
# [1] = test system: NIH3T3 cells transformed with mutant RET; details: Cancer Research, 15, 7284-7290, 2002; cited from earlier work
# [2] = test system: NIH3T3 cells transformed with mutant RET; details: Cancer Research, 15, 7284-7290, 2002; cited from earlier work; remark: listed apart in the source
# [3] = test system: Erk1/2; assay: Erk1/2 phosphorylation in human medullary thyroid carcinoma cell line (TT), western blotting; assay type: cell-based; details: TT cells, 1 hour treatment
# Description: Human medullary thyroid carcinoma cell line (TT, purchased from ATCC) was suspended in RPMI1640 medium containing 15% FBS (purchased from Sigma). TT is a cell expressing RET where cysteine at codon 634 in the wild-type RET amino acid sequence is mutated with tryptophan (Biochemical and Biophysical Research Communications, 207, 1022-1028, 1995). Two mL of this cell suspension per well (4×10^5 cells/mL) was added to 6-well cell culture plate (purchased from FALCON), and cultured in a 5% CO2 incubator (37° C.) overnight. After cultivation, supernatant was removed from each well and 1.8 mL of RPMI1640 medium containing 15% FBS was added. […] Supernatant was removed from each well, which was then washed with 400 μL of PBS, and added with 100 μL of solubilizing buffer (50 mM Hepes (pH7.4), 150 mM NaCl, 10% (v/v) glycerol, 1% Triton X-100, 1.5 mM MgCl2, 1 mM EDTA (pH 8.0), 100 mM NaF, 1 mM PMSF, 10 μg/mL, Aprotinin, 50 μg/mL Leupeptin, 1 μg/mL Pepstatin A and 1 mM Na3VO4). Cells in this solution were harvested with a scraper and treated at 15,000 rpm and 4° C. for 15 minutes. SDS buffer was added to the supernatant and subjected to treatment at 94° C. for 5 minutes to solubilize the protein, which was then prepared to 20 μg/10 μL as a cell extract. […]
# [4] = test system: human medullary thyroid carcinoma cell line (TT); assay: Cell growth of human medullary thyroid carcinoma cell line (TT); assay type: cell-based; details: 240 h, TT cells, 10 days culture, read-out: inhibitory activity against cell growth (IC50)
# Description: Human medullary thyroid carcinoma cell line (TT, purchased from ATCC) was suspended in RPMI1640 medium containing 15% FBS (purchased from Sigma). 0.1 mL per well of this cell suspension (3×10^4 cells/mL) was added to 96-well cell culture plate (purchased from NUNC), and cultured in a 5% CO2 incubator (37° C.) overnight. […] After cultivation, 10 μL of […] (purchased from DOJINDO) was added to each well, treated in 5% CO2 incubator (37° C.) for color development and absorbance of each well was determined with plate reader MTP-500 (Corona Electric) at measurement wavelength of 415 nm and reference wavelength of 660 nm. Percentage (%) of the absorbance of each well with the test substance was determined compared to the absorbance of well without the test substance, based on which concentration of the test substance required for inhibiting cell growth for 50% (IC50) was calculated.
# [5] = test system: human medullary thyroid carcinoma cell line (TT); assay: Antitumor effect in model for subcutaneous transplantation of human medullary thyroid carcinoma cell line (TT); assay type: in vivo, nude mouse; details: oral, 10, 30 or 100 mg/kg, once a day, four weeks
# Description: (§1) Human medullary thyroid carcinoma cell line (TT, purchased from ATCC) was cultured at 37° C. in RPMI1640 (containing 15% FBS) in a 5% carbon dioxide incubator to about 80% confluence, and cells were harvested with trypsin-EDTA according to a general method. The cells were suspended in a phosphate buffer to prepare 1×10^8 cells/mL suspension. 0.1 mL each of the resulting cell suspension was subcutaneously transplanted to a nude mouse at the side of its body (purchased from Charles River).
# The major and minor axes of tumors were measured with Digimatic caliper (Mitsutoyo), and tumor volumes were calculated according to the following formula. Tumor Volume (TV)=Major axis of tumor (mm)×(Minor axis of tumor)^2 (mm^2)/2
# [6] = target: T1, RET (Homo sapiens, UniProt P07949, C634W); assay: RET phosphorylation in tumor tissue of model for subcutaneous transplantation of TT; assay type: in vivo, nude mouse; details: oral, 10, 30 or 100 mg/kg; tumors resected 2, 8, 12 or 24 hours after administration
# T1 construct: from tissue; host or cells: Subcutaneous TT tumour resected from nude mice (TT from ATCC, mice from Charles River)
# Description: as §1
# Tumors were resected 2, 8, 12 or 24 hours after administration, to which solubilizing buffer (50 mM Hepes (pH7.4), 150 mM NaCl, 10% (v/v) glycerol, 1% Triton X-100, 1.5 mM MgCl2, 1 mM EDTA (pH 8.0), 100 mM NaF, 1 mM PMSF, 10 μg/mL Aprotinin, 50 μg/mL Leupeptin, 1 μg/mL Pepstatin A, 1 mM Na3VO4), 25 mM β-glycerophosphate, and phosphatase inhibitor cocktail II (SIGMA)) were added and homogenized. Treatment at 15,000 rpm and 4° C. for 15 minutes and addition of SDS buffer to the supernatant were followed by treatment at 94° C. for 5 minutes to solubilize protein to 20 μg/10 μL to prepare cell extract. The cell extract was subjected to electrophoresis and immunoblotting in the same manner as in Example 2.
# [7] = test system: human medullary thyroid carcinoma cell line (TT); details: Journal of the National Cancer Institute, 98, 326-334, 2006; cited from earlier work
# T1 sequence (P07949 29-1114 C634W): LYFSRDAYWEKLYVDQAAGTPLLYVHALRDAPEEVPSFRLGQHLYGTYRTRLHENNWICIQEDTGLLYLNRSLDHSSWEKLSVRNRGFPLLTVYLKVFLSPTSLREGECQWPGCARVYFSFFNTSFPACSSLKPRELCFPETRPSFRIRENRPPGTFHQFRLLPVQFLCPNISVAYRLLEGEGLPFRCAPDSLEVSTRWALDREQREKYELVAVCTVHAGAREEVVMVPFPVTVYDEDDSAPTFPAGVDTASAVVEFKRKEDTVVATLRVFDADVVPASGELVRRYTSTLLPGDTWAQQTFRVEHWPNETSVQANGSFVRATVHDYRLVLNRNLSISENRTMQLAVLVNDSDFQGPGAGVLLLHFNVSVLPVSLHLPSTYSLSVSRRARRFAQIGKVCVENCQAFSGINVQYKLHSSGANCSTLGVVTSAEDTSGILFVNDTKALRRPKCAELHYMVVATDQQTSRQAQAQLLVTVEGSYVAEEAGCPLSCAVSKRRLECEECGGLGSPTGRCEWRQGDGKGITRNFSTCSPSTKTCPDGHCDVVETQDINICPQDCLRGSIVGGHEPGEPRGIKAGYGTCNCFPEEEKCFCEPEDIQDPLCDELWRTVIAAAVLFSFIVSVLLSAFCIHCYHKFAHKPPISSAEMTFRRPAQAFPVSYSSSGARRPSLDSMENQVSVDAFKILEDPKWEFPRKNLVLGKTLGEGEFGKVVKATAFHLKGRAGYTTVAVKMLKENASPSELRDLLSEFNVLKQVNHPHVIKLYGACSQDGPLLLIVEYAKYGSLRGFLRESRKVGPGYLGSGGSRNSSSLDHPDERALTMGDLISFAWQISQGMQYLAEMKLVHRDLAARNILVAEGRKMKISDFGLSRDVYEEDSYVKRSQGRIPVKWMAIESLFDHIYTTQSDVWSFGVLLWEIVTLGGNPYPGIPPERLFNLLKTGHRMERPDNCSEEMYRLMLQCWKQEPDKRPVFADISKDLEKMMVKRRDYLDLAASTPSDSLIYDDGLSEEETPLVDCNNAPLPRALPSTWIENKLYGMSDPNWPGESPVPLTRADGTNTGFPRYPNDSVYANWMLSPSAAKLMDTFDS
structure (smiles),measurement,setting,value
COc1cc2c(Nc3ccc(Br)cc3F)ncnc2cc1OCC1CCN(C)CC1 [ZD6474],scaffold-independent proliferation,[1],suppress scaffold-independent proliferation
same,tumor formation,[2],inhibited tumor formation
COc1cc2nccc(Oc3ccc(NC(=O)NC4CC4)c(Cl)c3)c2cc1C(N)=O [4-(3-chloro-4-(cyclopropylaminocarbonyl)aminophenoxy)-7-methoxy-6-quinolinecarboxamide],inhibition of Erk1/2 phosphorylation,[3],at a concentration similar to that for RET kinase
same,IC50,[4],78 nM
same,antitumor effect (tumor volume),[5],dose-dependent antitumor effect
same,RET autophosphorylation inhibitory activity in tumor,[6],RET autophosphorylation inhibitory activity at the dose found to exert antitumor effect
CNC(=O)c1cc(Oc2ccc(NC(=O)Nc3ccc(Cl)c(C(F)(F)F)c3)cc2)ccn1 [BAY 43-9006],size of tumor,[7],reduce the size of tumor
